We go through five compounds from PubChem BioAssay (NCI).

Test systems include MCF7 breast; EKVX NSCLC; SK-OV-3 ovarian; HCC-2998 colon; U251 CNS; DU-145 prostate; NCI/ADR-RES ovarian; NCI-H522 lung; SR leukemia; M14 melanoma.
Common to all, as to assay: NCI-60 cell line screen, 48 h

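Where inhibition never reached the appropriate level, the endpoint shown equals the highest concentration tested. Otherwise, values were interpolated linearly from a five-concentration, 48-hour dose response in 96-well plates. Definition used: TGI = concentration required for complete inhibition of growth.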 Some results are limits rather than exact numbers.

For `CCSCCC(N)C(=O)O` (stereo not given), the TGI with MCF7 breast, in the assay with EKVX NSCLC, in the assay with SK-OV-3 ovarian, in the assay on HCC-2998 colon, with U251 CNS and in the assay on DU-145 prostate was greater than 100 µM throughout. Besides, the TGI in the assay with NCI/ADR-RES ovarian, in the assay with NCI-H522 lung, in the assay on SR leukemia and in the assay with M14 melanoma was greater than 100 µM each time.

Consider `COc1ccc2nc(N/N=C/C(C)=N/Nc3cc(C)c4cc(OC)ccc4n3)cc(C)c2c1`, for which the TGI is 29.8 µM with MCF7 breast; 40.2 µM with EKVX NSCLC; greater than 100 µM in the assay with SK-OV-3 ovarian; 47.1 µM in the assay on HCC-2998 colon; 31.6 µM in the assay with U251 CNS; 34.8 µM in the assay on DU-145 prostate. The TGI came to 46.1 µM with NCI/ADR-RES ovarian, 40.3 µM in the assay on NCI-H522 lung, 12.8 µM in the assay with SR leukemia and 80.2 µM in the assay with M14 melanoma.

Consider `COc1cc(C=C2C(C)=NN(c3cccc(Cl)c3)C23SCC(=O)N3c2nc3ccccc3s2)ccc1O` (stereo not given), for which the TGI in the assay on MCF7 breast is greater than 100 µM; with EKVX NSCLC, greater than 100 µM; with SK-OV-3 ovarian, 50.8 µM; in the assay on HCC-2998 colon, greater than 83.5 µM; in the assay with U251 CNS, 41.4 µM; in the assay on DU-145 prostate, greater than 100 µM. The TGI with NCI/ADR-RES ovarian was greater than 96.7 µM; in the assay on NCI-H522 lung, 41.5 µM; in the assay on SR leukemia, 29.2 µM; in the assay with M14 melanoma it was greater than 100 µM.

Consider `CNC(=O)OC(C)CN1c2ccccc2Sc2ccc(Cl)cc21` (stereo not given), for which the TGI in the assay with MCF7 breast, in the assay with EKVX NSCLC, with SK-OV-3 ovarian, with HCC-2998 colon, in the assay on U251 CNS and in the assay on DU-145 prostate was greater than 10 µM each time. In addition, the TGI with NCI/ADR-RES ovarian, with NCI-H522 lung, with SR leukemia and in the assay on M14 melanoma was greater than 10 µM throughout.

For the compound `Cc1nc(N)nc(N)c1-c1ccc(Cl)c(Cl)c1`, the TGI with MCF7 breast was greater than 100 µM; with EKVX NSCLC, greater than 100 µM; in the assay with SK-OV-3 ovarian, greater than 100 µM; with HCC-2998 colon it was greater than 50.6 µM; in the assay on U251 CNS, greater than 100 µM; in the assay on DU-145 prostate it was greater than 100 µM. In addition, the TGI is greater than 100 µM in the assay on NCI/ADR-RES ovarian, 34.8 µM with NCI-H522 lung, greater than 100 µM in the assay on SR leukemia and greater than 100 µM with M14 melanoma.
